Tested on: patients with advanced or metastatic solid tumors
Experiment: Trial 1403-0001 Phase Ia dose escalation, Arm A (D1 q3w): adverse events
Assay type: in vivo
Text: Trial 1403-0001 was a first in human Phase Ia/Ib, open label, multicenter, dose-escalation study of the MDM2-antagonist of formula I in patients with advanced or metastatic solid tumors. The Phase Ia dose escalation part aimed to define the Maximum Tolerated Dose (MTD) and the Recommended Dose for Expansion (RDE) for the MDM2-antagonist of formula I based on safety and tolerability, pharmacokinetics, pharmacodynamics, and preliminary efficacy. The RDE will be further explored in the Phase Ib expansion part of the trial.
Fifty-four patients had been treated with the MDM2-antagonist of formula I in the Phase Ia dose escalation part of clinical trial 1403-0001. Twenty-nine patients were treated in Arm A (dosing regimen: dosing on Day 1 of a 21 days-cycle, D1 q3w) and twenty-five patients were treated in Arm B (dosing regimen: dosing on Day 1 and on Day 8 of a 28 days-cycle, D1 D8 q4w). Dose levels evaluated in Arm A were 10, 20, 30, 45, 50, 60, and 80 mg. Dose levels evaluated in Arm B (referring to the dose administered on Day 1 and Day 8) were 5, 10, 15, 20, 30, 45, and 60 mg.
During the on-treatment period, all 29 patients were reported with adverse events (AEs). […] A total of 27 patients (93.1%) were reported with at least 1 AE judged to be related to the MDM2-antagonist of formula I by investigators.

SMILES: Cc1c(C(=O)O)ccc2c3n(nc12)[C@@H]1[C@H](C3)N(CC2CC2)[C@@]2(C(=O)Nc3cc(Cl)ccc32)[C@H]1c1cccc(Cl)c1F [MDM2-antagonist of formula I, (2′S,3′S,3a'S,10a'S)-6-chloro-3′-(3-chloro-2-fluorophenyl)-1′-(cyclopropylmethyl)-6′-methyl-2-oxo-1,2,3′,3a′,10′,10a′-hexahydro-1′H-spiro[indole-3,2′-pyrrolo[2′,3′:4,5]pyrrolo[1,2-b]indazole]-7′-carboxylic acid]
- Serious AEs: Results in Death, % (Arm A D1 q3w, 10 mg): 0%
- Subjects with maximum CTC Grade 5, % (Arm A D1 q3w, 10 mg): 0%
- Serious AEs: Results in Death, % (Arm A D1 q3w, 20 mg): 0%
- Subjects with maximum CTC Grade 5, % (Arm A D1 q3w, 20 mg): 0%
- Serious AEs: Results in Death, % (Arm A D1 q3w, 30 mg): 0%
- Subjects with AEs leading to dose reduction of trial drug, % (Arm A D1 q3w, 30 mg): 33.3%
- Subjects with maximum CTC Grade 2, % (Arm A D1 q3w, 30 mg): 33.3%
- Subjects with maximum CTC Grade 3, % (Arm A D1 q3w, 30 mg): 66.7%
- Subjects with maximum CTC Grade 5, % (Arm A D1 q3w, 30 mg): 0%
- Patients with Dose limiting toxicity, % (Arm A D1 q3w, 45 mg): 33.3%
- Serious AEs: Results in Death, % (Arm A D1 q3w, 45 mg): 0%
- Subjects with AEs leading to dose reduction of trial drug, % (Arm A D1 q3w, 45 mg): 33.3%
- Subjects with maximum CTC Grade 3, % (Arm A D1 q3w, 45 mg): 33.3%
- Subjects with maximum CTC Grade 5, % (Arm A D1 q3w, 45 mg): 0%
- Serious AEs: Results in Death, % (Arm A D1 q3w, 50 mg): 0%
- Subjects with maximum CTC Grade 5, % (Arm A D1 q3w, 50 mg): 0%
- Serious AEs: Results in Death, % (Arm A D1 q3w, 60 mg): 0%
- Subjects with maximum CTC Grade 3, % (Arm A D1 q3w, 60 mg): 71.4%
- Subjects with maximum CTC Grade 5, % (Arm A D1 q3w, 60 mg): 0%
- Patients with Dose limiting toxicity, % (Arm A D1 q3w, 80 mg): 66.7%
- Serious AEs: Requires or Prolongs Hospitalization, % (Arm A D1 q3w, 80 mg): 33.3%
- Serious AEs: Results in Death, % (Arm A D1 q3w, 80 mg): 0%
- Subjects with maximum CTC Grade 2, % (Arm A D1 q3w, 80 mg): 33.3%
- Subjects with maximum CTC Grade 4, % (Arm A D1 q3w, 80 mg): 66.7%
- Subjects with maximum CTC Grade 5, % (Arm A D1 q3w, 80 mg): 0%
- Subjects with serious AEs, % (Arm A D1 q3w, 80 mg): 33.3%
- Serious AEs: Requires or Prolongs Hospitalization, % (Arm A D1 q3w, Total): 31.0%
- Serious AEs: Results in Death, % (Arm A D1 q3w, Total): 0%
- Subjects with AEs leading to Discontinuation of trial drug, % (Arm A D1 q3w, Total): 6.9%
- Subjects with maximum CTC Grade 5, % (Arm A D1 q3w, Total): 0%
- drug-related AE diarrhea, patients (Arm A, all 29 patients): 27.6%
- drug-related AE fatigue, patients (Arm A, all 29 patients): 41.1%
- drug-related AE nausea, patients (Arm A, all 29 patients): 72.4%
- drug-related AE platelet count decreased, patients (Arm A, all 29 patients): 37.9%
- drug-related AE vomiting, patients (Arm A, all 29 patients): 41.1%
- drug-related AE white blood cell count decreased, patients (Arm A, all 29 patients): 27.6%
- fatal AEs (Arm A, all 29 patients): No fatal AEs were reported
- patients with DLTs during the MTD evaluation period (cycle 1) (Arm A, all 29 patients): 17.2%
- AE anemia, patients (human, in vivo): 41.4%
- AE back pain, patients (human, in vivo): 20.7%
- AE decreased appetite, patients (human, in vivo): 41.4%
- AE diarrhea, patients (human, in vivo): 34.5%
- AE fatigue, patients (human, in vivo): 51.7%
- AE nausea, patients (human, in vivo): 82.8%
- AE platelet count decreased, patients (human, in vivo): 37.9%
- AE vomiting, patients (human, in vivo): 48.3%
- AEs leading to Discontinuation: Other adverse event, % (human, in vivo): 3.4%
- Grade 3 AE platelet count decreased, patients (human, in vivo): 13.8%
- Grade 4 AE neutrophil count decreased, patients (human, in vivo): 10.3%
- SAE platelet count decreased, patients (human, in vivo): 6.9%
- Serious AEs: Cogenital Anomaly or Birth Defect, % (human, in vivo): 0%
- Serious AEs: Is Life Threatening, % (human, in vivo): 0%
- Serious AEs: Other Medically Important Serious Event, % (human, in vivo): 3.4%
- Serious AEs: Persists of Signif. Disability/Incapacity, % (human, in vivo): 0%
- Subjects with any AE, % (human, in vivo): 100%
- Subjects with investigator defined drug-related AEs, % (human, in vivo): 93.1%
- Subjects with maximum CTC Grade 1, % (human, in vivo): 3.4%
- Subjects with maximum CTC Grade 2, % (human, in vivo): 27.6%
- Subjects with maximum CTC Grade 3, % (human, in vivo): 51.7%
- Subjects with maximum CTC Grade 4, % (human, in vivo): 17.2%
- Subjects with serious AEs, % (human, in vivo): 31.0%
- dose reduction due to enterocolitis, patients (human, in vivo): 3.4%
- dose reduction due to nausea, patients (human, in vivo): 6.9%
- dose reduction due to neutropenia and/or thrombocytopenia, patients (human, in vivo): 20.7%
- drug-related AE anemia, patients (human, in vivo): 24.1%
- drug-related AE decreased appetite, patients (human, in vivo): 34.5%
